Tests used:
[1] = system: bedstraw; assay: Test B pre/postemergence bedstraw; type: in vivo, Galium aparine; details: Preemergence
Outline: (§1)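 Test chemicals in a non-phytotoxic solvent mixture with surfactant were sprayed preemergence onto planted seeds and postemergence onto plants 2 to 18 cm tall (1- to 4-leaf stage). After twelve to sixteen days in a greenhouse, injury was visually rated against untreated controls from 0 (no effect) to 10 (complete control).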

[2] = system: blackgrass; assay: Test B pre/postemergence blackgrass; type: in vivo, Alopecurus myosuroides
Outline: as §1

[3] = system: surinam grass; assay: Test B pre/postemergence surinam grass; type: in vivo, Brachiaria decumbens
Outline: as §1

[4] = system: cocklebur; assay: Test B pre/postemergence cocklebur; type: in vivo, Xanthium strumarium
Outline: as §1

[5] = system: corn; assay: Test B pre/postemergence corn; type: in vivo, Zea mays
Outline: as §1

[6] = system: crabgrass; assay: Test B pre/postemergence crabgrass; type: in vivo, Digitaria sanguinalis
Outline: as §1

[7] = system: giant foxtail; assay: Test B pre/postemergence giant foxtail; type: in vivo, Setaria faberii
Outline: as §1

[8] = system: morningglory; assay: Test B pre/postemergence morningglory; type: in vivo, Ipomoea hederacea
Outline: as §1

[9] = system: pigweed; assay: Test B pre/postemergence pigweed; type: in vivo, Amaranthus retroflexus
Outline: as §1

[10] = system: rape; assay: Test B pre/postemergence rape; type: in vivo, Brassica napus
Outline: as §1

[11] = system: soybean; assay: Test B pre/postemergence soybean; type: in vivo, Glycine max
Outline: as §1

[12] = system: sugar beet; assay: Test B pre/postemergence sugar beet; type: in vivo, Beta vulgaris
Outline: as §1

[13] = system: velvetleaf; assay: Test B pre/postemergence velvetleaf; type: in vivo, Abutilon theophrasti
Outline: as §1

[14] = system: wheat; assay: Test B pre/postemergence wheat; type: in vivo, Triticum aestivum
Outline: as §1

[15] = system: wild oat; assay: Test B pre/postemergence wild oat; type: in vivo, Avena fatua
Outline: as §1

[16] = system: purple nutsedge; assay: Test B pre/postemergence purple nutsedge; type: in vivo, Cyperus rotundus
Outline: as §1

[17] = Postemergence, Rate 62 g/ha, scale of 0 to 10, 0 is no effect, 10 is complete control
[18] = Postemergence, Rate 125 g/ha, scale 0 to 10, 0 is no effect, 10 is complete control
[19] = Postemergence, Rate 500 g/ha, scale 0 to 10, 0 is no effect, 10 is complete control
[20] = Preemergence, Rate 62 g/ha, scale 0 to 10 (0 no effect, 10 complete control)
[21] = Preemergence, Rate 125 g/ha, scale 0 to 10, 0 is no effect, 10 is complete control
[22] = Rate 250 g/ha, Postemergence, scale of 0 to 10 where 0 is no effect and 10 is complete control
[23] = Preemergence, Rate 500 g/ha, scale of 0 to 10 where 0 is no effect and 10 is complete control

SMILES: CCOCn1c(=O)on(C(=O)N(c2ccc(Cl)cc2)C(C)C)c1=O [Compound 534]
- Bedstraw plant response rating ([1]; Rate 62 g/ha, scale 0 to 10 (0 no effect, 10 complete control)): 0
- Bedstraw plant response rating ([1]; Rate 125 g/ha, scale 0 to 10, 0 is no effect, 10 is complete control): 0
- Bedstraw plant response rating (0 to 10 scale) ([1]; Rate 250 g/ha): 0
- Blackgrass plant response rating [2, 17]: 0
- Blackgrass plant response rating [2, 18]: 2
- Plant response rating, Blackgrass [2, 19]: 7
- Blackgrass plant response rating [2, 20]: 8
- Blackgrass plant response rating [2, 21]: 9
- Blackgrass plant response rating (0 to 10 scale) ([2]; Preemergence, Rate 250 g/ha): 9
- Plant response rating, Blackgrass [2, 22]: 7
- B. signalgrass plant response rating [3, 17]: 0
- B. signalgrass plant response rating [3, 18]: 0
- Plant response rating, B. signalgrass [3, 19]: 6
- B. signalgrass plant response rating [3, 20]: 9
- B. signalgrass plant response rating [3, 21]: 9
- B. signalgrass plant response rating (0 to 10 scale, 0 is no effect, 10 is complete control) ([3]; Preemergence, Rate 250 g/ha): 9
- Plant response rating, B. signalgrass [3, 22]: 0
- Cocklebur plant response rating [4, 17]: 0
- Cocklebur plant response rating [4, 18]: 0
- Plant response rating, Cocklebur [4, 19]: 0
- Cocklebur plant response rating [4, 20]: 0
- Cocklebur plant response rating [4, 21]: 0
- Cocklebur plant response rating (0 to 10 scale) ([4]; Preemergence, Rate 250 g/ha): 0
- Cocklebur plant response rating [4, 23]: 0
- Plant response rating, Cocklebur [4, 22]: 0
- Corn plant response rating [5, 17]: 0
- Corn plant response rating [5, 18]: 0
- Plant response rating, Corn [5, 19]: 0
- Corn plant response rating [5, 20]: 0
- Corn plant response rating [5, 21]: 0
- Corn plant response rating (0 to 10 scale) ([5]; Preemergence, Rate 250 g/ha): 3
- Corn plant response rating [5, 23]: 3
- Plant response rating, Corn [5, 22]: 0
- Crabgrass plant response rating [6, 18]: 5
- Plant response rating, Crabgrass [6, 19]: 8
- Crabgrass plant response rating [6, 20]: 9
- Crabgrass plant response rating [6, 21]: 10
- Crabgrass plant response rating (0 to 10 scale) ([6]; Preemergence, Rate 250 g/ha): 10
- Crabgrass plant response rating [6, 23]: 10
- Plant response rating, Crabgrass [6, 22]: 4
- Giant foxtail plant response rating [7, 18]: 3
- Plant response rating, Giant foxtail [7, 19]: 8
- Giant foxtail plant response rating [7, 20]: 9
- Giant foxtail plant response rating [7, 21]: 9
- Giant foxtail plant response rating (0 to 10 scale) ([7]; Preemergence, Rate 250 g/ha): 10
- Giant foxtail plant response rating [7, 23]: 10
- Plant response rating, Giant foxtail [7, 22]: 4
- Morningglory plant response rating [8, 17]: 2
- Morningglory plant response rating [8, 18]: 2
- Plant response rating, Morningglory [8, 19]: 3
- Morningglory plant response rating [8, 20]: 0
- Morningglory plant response rating [8, 21]: 0
- Morningglory plant response rating (0 to 10 scale) ([8]; Preemergence, Rate 250 g/ha): 2
- Morningglory plant response rating [8, 23]: 0
- Plant response rating, Morningglory [8, 22]: 2
- Redroot pigweed plant response rating [9, 17]: 0
- Redroot pigweed plant response rating [9, 18]: 3
- Plant response rating, Redroot pigweed [9, 19]: 7
- Redroot pigweed plant response rating [9, 20]: 0
- Redroot pigweed plant response rating [9, 21]: 0
- Redroot pigweed plant response rating (0 to 10 scale) ([9]; Preemergence, Rate 250 g/ha): 0
- Plant response rating, Redroot pigweed [9, 22]: 3
- Rape plant response rating [10, 17]: 0
- Rape plant response rating [10, 18]: 0
- Plant response rating, Rape [10, 19]: 7
- Rape plant response rating [10, 20]: 2
- Rape plant response rating [10, 21]: 6
- Rape plant response rating (0 to 10 scale) ([10]; Preemergence, Rate 250 g/ha): 6
- Plant response rating, Rape [10, 22]: 0
- Soybean plant response rating [11, 18]: 4
- Plant response rating, Soybean [11, 19]: 7
- Soybean plant response rating [11, 20]: 0
- Soybean plant response rating [11, 21]: 0
- Soybean plant response rating (0 to 10 scale) ([11]; Preemergence, Rate 250 g/ha): 0
- Plant response rating, Soybean [11, 22]: 6
- Sugarbeets plant response rating [12, 17]: 0
- Sugarbeets plant response rating [12, 18]: 0
- Plant response rating, Sugarbeets [12, 19]: 2
- Sugarbeets plant response rating [12, 20]: 3
- Sugarbeets plant response rating [12, 21]: 4
- Sugarbeets plant response rating (0 to 10 scale) ([12]; Preemergence, Rate 250 g/ha): 6
- Plant response rating, Sugarbeets [12, 22]: 3
- Velvetleaf plant response rating [13, 17]: 0
- Velvetleaf plant response rating [13, 18]: 2
- Plant response rating, Velvetleaf [13, 19]: 2
- Velvetleaf plant response rating [13, 20]: 0
- Velvetleaf plant response rating [13, 21]: 2
- Velvetleaf plant response rating (0 to 10 scale) ([13]; Preemergence, Rate 250 g/ha): 2
- Velvetleaf plant response rating [13, 23]: 3
- Plant response rating, Velvetleaf [13, 22]: 2
- Wheat plant response rating [14, 17]: 0
- Wheat plant response rating [14, 18]: 0
- Plant response rating, Wheat [14, 19]: 5
- Wheat plant response rating [14, 20]: 0
- Wheat plant response rating [14, 21]: 0
- Wheat plant response rating (0 to 10 scale) ([14]; Preemergence, Rate 250 g/ha): 3
- Plant response rating, Wheat [14, 22]: 3
- Wild oats plant response rating [15, 17]: 0
- Wild oats plant response rating [15, 18]: 0
- Plant response rating, Wild oats [15, 19]: 3
- Wild oats plant response rating [15, 20]: 3
- Wild oats plant response rating [15, 21]: 8
- Wild oats plant response rating (0 to 10 scale) ([15]; Preemergence, Rate 250 g/ha): 9
- Plant response rating, Wild oats [15, 22]: 0
- Nutsedge plant response rating [16, 17]: 0
- Nutsedge plant response rating [16, 18]: 2
- Plant response rating, Nutsedge [16, 19]: 2
- Nutsedge plant response rating [16, 20]: 0
- Nutsedge plant response rating [16, 21]: 0
- Plant response rating, Nutsedge [16, 22]: 2

From US6737383B1, “Herbicidal oxadiazolidines” (priority 1999, dated 2004)
